Assay results: paper PMC12567141, “Design, Synthesis and Biological Evaluation of Pyrazolopyrimidine Derivatives as Aryl Hydrocarbon Receptor Antagonists for Colorectal Cancer Immunotherapy” (Pharmaceutics, 2025)

How the values were obtained:
MC38 and CT26 cells = experiment: Apoptosis analysis (Annexin V / propidium iodide); format: cell-based; conditions: 24 h treatment
Method: Cells were washed with PBS containing 1% horse serum and stained with the FITC-Annexin V Apoptosis Detection Kit I (BD Biosciences) at room temperature for 30 min in the dark. DNA content, cell-cycle profiles, and forward scatter profiles were determined using the Becton Dickinson LSRFortessa^TM and analyzed with FlowJo software v11.

AhR = AhR antagonist screening using Tg(cyp1a:egfp) zebrafish; format: in vivo; parameters: key to AhR Antagonist Activity at 100 nM: - no inhibition; + weak; ++ mild; +++ moderate; ++++ high; +++++ very high
Method: At 30 hpf, Tg(cyp1a:egfp) embryos were placed in a 2-mL screw-capped glass vial with five embryos per vial. Each vial contained 1 mL of E3 media (5 mM NaCl, 0.17 mM KCl, 0.33 mM CaCl2·2H2O and 0.4 mM MgCl2·6H2O, pH 7.2) and supplemented with 2 nM TCDD (1746-01-6; AccuStandard Inc., New Haven, NH, USA) dissolved in DMSO. The compounds were subsequently diluted and individually introduced into the vials, achieving a final concentration of 0.1% DMSO. The embryos were then incubated for 48 h and then embryonic EGFP expression was evaluated using a fluorescent stereomicroscope (SteREO Discovery V8; Zeiss, Oberkochen, BW, Germany). As a positive control, StemRegenin1 (72342, […] Technologies, Vancouver, BC, Canada) was employed.
To evaluate AhR antagonistic activity, we conducted an AhR antagonist assay using transgenic zebrafish. Zebrafish have garnered significant attention as model organisms for drug discovery because they share metabolic pathways with mammals. […] Therefore, we synthesized more meta substituted phenyl derivatives. […] We also synthesized heteroaromatic derivatives including pyrimidine and pyridine at 5-position; however, their activities were decreased.

colorectal cancer cells = experiment: Cell viability assay (CCK-8), colorectal cancer cells; format: cell-based; conditions: 24 h
Method: Chinese hamster ovary CHO cells, mouse fibroblast L929 cells, normal colon CCD18-Co cells, monkey kidney fibroblast COS-7 cells, colorectal cancer cells including HCT-116, RKO, SW480, SW620, CT26, and MC38 cells were purchased from ATCC (American Type Culture Collection). CHO, L929, Cos-7, and all cancer cells were maintained in RPMI 1640 or DMEM supplemented with 10% FBS (Gibco FBS; Thermo Fisher Scientific, Hanover Park, IL, USA) and 1% streptomycin/penicillin. CCD18-Co cells were cultured in high-glucose Dulbecco modified Eagle medium containing 10% FBS and 1% streptomycin/penicillin. All cells were grown in 5% CO2 at 37 °C. Mycoplasma testing was regularly performed every month using the BioMycoX Mycoplasma PCR Detection Kit (CellSafe, Yongin, Republic of Korea).
Cell viability was analyzed using a Cell Counting Kit-8 (Dojindo molecular technologies, Rockville, MD, USA). Cells were seeded in 96-well plates and treated with different concentrations of 7k. At the indicated time points, CCK-8 (10 μL/well) reagents were added to the cells, followed by further incubation at 37 °C for 90 min. The absorbance at 450 nm was measured using a plate reader (BioTek instruments, Winooski, VT, USA).

[1] = tested on: AhR, AhRR, and IDO-1 mRNA expression in MC38 and CT26 cells; experiment: qRT-PCR of AhR downstream genes in kynurenine-stimulated cells; format: cell-based; conditions: 200 μM kynurenine-stimulated MC38 and CT26 cells, 24 h, qPCR
Method: MC38 and CT26 were treated with different concentrations of 7k and 200 μM Kynurenine for 24 h. RNA from treated cells was extracted and cDNA was synthesized using the ReverTraAce™ qPCR RT Kit (TOYOBO, Osaka, Japan), followed by evaluation of AhR, AhRR, and IDO-1 mRNA expression with quantitative real-time PCR. PCR conditions were 95 °C preincubation, maintained for 1 min, and then 1 cycle of 95 °C denaturation for 15 s, 55 °C annealing for 15 s, and 72 °C polymerization for 45 s. A total of 40 cycles were repeated. Advanced Relative Quantification analysis was used to confirm the structure of the expected quantitative real-time PCR product, and the variability of other gene amplification was calibrated by relative comparison with GAPDH expression (Table 1).

[2] = tested on: CD8+ IFNγ + T lymphocytes; experiment: Flow cytometry of CD8+ IFNγ+ T lymphocytes in splenocytes of tumour-bearing mice; format: in vivo; conditions: vs vehicle or single therapy
Method: For analysis of CD8+ IFNγ + T lymphocytes, splenocytes were collected from tumour-bearing mice and stimulated with a cell activation cocktail (BioLegend, San Diego, CA, USA) in the presence of Brefeldin A for 6 h. Splenocytes were stained with APC-conjugated CD8 and APC-Cy7-conjugated IFNγ Ab at 4 °C for 30 min (BioLegend). After washing with FACS buffer (Biolegend) three times, the cells were analysed using Becton Dickinson LSRFortessa^TM and analyzed with FlowJo software. Isotype-matched monoclonal antibodies were used as controls. The data were analysed using Flowjo analysis software v11. (Flowjo LLC, Ashland, OR, USA).

[3] = Body weight during in vivo therapy; conditions: 7k-treated tumor-bearing mice during in vivo therapy
Method: In vivo experiments were conducted using 6-week-old male immunocompetent BALB/c and C57BL/6 with 18–20 g body weight (Orient Bio Inc., Seungnam, Republic of Korea). All animal experimental procedures were maintained and used in accordance with the Guidelines for the Care and Use of Laboratory Animals of the Institute of Laboratory Animal Center, Daegu-Gyeongbuk Medical Innovation Foundation (K-MEDI hub). The animal studies were conducted after approval by the institutional reviewer board on the Ethics of Animal Experiments of the Daegu-Gyeongbuk Medical Innovation Foundation (approval number: KMEDI-24041103-01).
Study 1: Antitumor activity of 7k alone in mice with either CT26 syngeneic model or MC38 syngeneic model. Mice were subcutaneously challenged with 5 × 10^5 either MC38 or CT26 cells. When tumor formation was detected via inspection and palpation, 7k treatment was initiated once a day for 14 days by oral gavage.
Study 2: Antitumor activity of combination with anti-PD1 and 7k in CT26 tumor bearing mice. Mice were subcutaneously challenged with 5 × 10^5 CT26 cells. Tumor bearing mice were divided into four groups as following; Group 1: vehicle, Group 2: 10 mg/kg anti-PD1, Group 3: 10 mg/kg 7k, and Group 4: 10 mg/kg anti-PD1 + 10 mg/kg 7k. 7k was administered by oral gavage once daily. […]

With `CC(C)n1cc2nc(-c3cc(F)cc(F)c3)nc(NCCc3c[nH]c4ccccc34)c2n1` [Compound 7k, N-(2-(1H-indol-3-yl)ethyl)-5-(3,5-difluorophenyl)-2-isopropyl-2H-pyrazolo [4,3-d]pyrimidin-7-amine] the apoptosis (MC38 and CT26 cells) was “increase in apoptosis”, the “AhR antagonistic activity in zebrafish, in words” value (AhR; Tg(cyp1a:egfp) zebrafish, EGFP readout) was “significant antagonistic activity against AhR” and the “AhR Antagonist Activity at 100 nM” value (AhR; extent of GFP reduction in Tg(cyp1a:egfp) zebrafish compared to the TCDD (2 nM) control, 100 nM, 48 h) was “+++++”. The “cell proliferation / viability of colorectal cancer cells” value (colorectal cancer cells) was “dose-dependent decrease in cell proliferation”, the “expression levels of AhR, AhRR, and IDO-1” value [1] was “reduced the expression levels of AhR, AhRR, and IDO-1” and the “levels of CD8+ IFNγ T lymphocytes” value [2] was “increased the levels of CD8+ IFNγ T lymphocytes”. The body weight [3] was “No abnormal reduction in body weight”.
